In patent US4339576A, “Anti-asthmatic, anti-allergic, anti-cholinergic, bronchodilator and anti-inflammatory 1-[(benzoylphenyl)-lower-alkyl]piperidines and analogs thereof” (Sterling Drug Inc., priority 1981, dated 1982):
pEC50: −log10 of the molar value. Counter-ions that a name gives are not always drawn. Like-named read-outs stand apart in the source and are kept apart here.

Columns and labels:
[1] = Toxicity observations in the carrageenin edema test; format: in vivo; conditions: C.E. test, .324 millimoles/kg, oral, rats; for dead: animals dead
Procedure: Anti-inflammatory activity was determined using (1) the inhibition of carrageenin-induced foot edema test described by Winter et al., Proc. Soc. […] Therap. […] J. Vet.
All data were obtained on oral administration in rats.

[2] = tested on: carrageenin-induced foot edema; assay: Inhibition of carrageenin-induced foot edema (C.E.); format: in vivo, rats; conditions: Rattus norvegicus, read-out: percent inhibition, C.E.
[3] = tested on: adjuvant-induced arthritis; assay: Inhibition of adjuvant-induced arthritis (A.A.); format: in vivo; conditions: Rattus norvegicus, oral, rats, read-out: percent inhibition, A.A.; for inhibition in vivo at 80 µmol/kg: .08 millimoles/kg; for inhibition in vivo at 40 µmol/kg: .04 millimoles/kg; for inhibition in vivo at 324 µmol/kg: .324 millimoles/kg
[4] = tested on: passive cutaneous anaphylaxis; assay: Passive cutaneous anaphylaxis test (PCA); format: in vivo; design: key: Actv.: active; Weak: weakly active; Inac.: inactive; conditions: rats
bradykinin = assay: Anti-bradykinin test (BDK); format: in vivo; conditions: po
[5] = tested on: acetylcholine-induced abdominal constriction; assay: Acetylcholine-induced abdominal constriction test (Ach); format: in vivo, mice; conditions: Mus musculus
human basophils = assay: In vitro histamine release from human basophils test; format: cell-based; conditions: for pEC50: read-out: AEC50 (Approximate Effective Concentration resulting in 50% inhibition of allergic release of histamine)
[6] = tested on: histamine induced bronchoconstriction; assay: Histamine induced bronchoconstriction test in anesthetized dogs; format: in vivo; conditions: intraduodenally; for ED40: Canis lupus familiaris, intraduodenal, read-out: AED40 (Approximate Effective Dose resulting in 40% inhibition of bronchoconstriction)
[7] = tested on: guinea pig tracheal contractions by barium; assay: Relaxation of guinea pig tracheal contractions by barium; conditions: guinea pig trachea
[8] = tested on: guinea pig tracheal contractions by carbachol; assay: Relaxation of guinea pig tracheal contractions by carbachol; conditions: guinea pig trachea, read-out: EC50 (effective concentration to produce 50% relaxation), Carb

SMILES | inhibition in vivo at 80 µmol/kg ([2]; .08 millimoles/kg, oral, rats) [%] | inhibition in vivo at 80 µmol/kg [3] [%] | inhibition in vivo at 324 µmol/kg ([2]; .324 millimoles/kg, oral, rats) [%] | PCA activity (qualitative statement) [4] | ED50 ([5]; po) [mg/kg] | other results
CC(C(=O)N1CCC(CN2CCCCC2)CC1)c1cccc(C(=O)c2ccccc2)c1 (stereo not drawn) [Example 1A, 1-[α-(3-benzoylphenyl)propionyl]-4-(1-piperidinylmethyl)piperidine] | 14 | – | – | – | – | Toxic (result in words) [1]: Toxic; dead [1]: 6/8
CC(C(=O)N1CCCCC1CN1CCOCC1)c1cccc(C(=O)c2ccccc2)c1 (stereo not drawn) [Example 1B, 1-[α-(3-Benzoylphenyl)propionyl]-2-(4-morpholinylmethyl)piperidine hydrochloride] | 9 | 0 | 67 | – | – | –
CC(C(=O)N1CCC(CN2CCOCC2)CC1)c1cccc(C(=O)c2ccccc2)c1 (stereo not drawn) [Example 1C, 1-[α-(3-Benzoylphenyl)propionyl]-4-(4-morpholinylmethyl)piperidine hydrochloride] | 18 | 30 | 61 | – | – | –
CC(C(=O)N1CCCC(CN2CCOCC2)C1)c1cccc(C(=O)c2ccccc2)c1.Cl (stereo not drawn) [Example 1D, 1-[α-(3-Benzoylphenyl)propionyl]-3-(4-morpholinylmethyl)piperidine hydrochloride] | 0 | 37 | 65 | Actv. | – | –
CC(C(=O)N1CCCCC1CN1CCCCC1)c1cccc(C(=O)c2ccccc2)c1 (stereo not drawn) [Example 1E, 1-[α-(3-Benzoylphenyl)propionyl]-2-(1-piperidinylmethyl)piperidine] | – | – | – | – | – | inhibition in vivo at 80 µmol/kg ([2]; po): 11%; inhibition in vivo at 324 µmol/kg ([2]; po): 67%
CC(C(=O)N1CCCC(CN2CCCCC2)C1)c1cccc(C(=O)c2ccccc2)c1 (stereo not drawn) [Example 1F, 1-[α-(3-Benzoylphenyl)propionyl]-3-(1-piperidinylmethyl)piperidine hydrochloride] | 20 | – | – | Actv. | – | Toxic (result in words) [1]: Toxic; dead [1]: 5/8
CC(CN1CCC(CN2CCCCC2)CC1)c1cccc(C(=O)c2ccccc2)c1 (stereo not drawn) [Example 2, 1-[2-(3-benzoylphenyl)propyl]-4-(1-piperidinylmethyl)piperidine dihydrochloride] | 47 | 95 | 64 | – | 22 | inhibition in vivo at 20 µmol/kg ([3]; .02 millimoles/kg): 59%; inhibition in vivo at 40 µmol/kg [3]: 67%; inhibition in vivo at 324 µmol/kg [3]: 9%; ED50 (bradykinin): 24 mg/kg; ED50 ([5]; sc): 11 mg/kg
CC(=O)NC1CCN(CC(C)c2cccc(C(=O)c3ccccc3)c2)CC1.Cl (stereo not drawn) [Example 3A, 1-[2-(3-benzoylphenyl)propyl]-4-acetylaminopiperidine hydrochloride] | 29 | 75 | 58 | – | 3.6 | ED50 (bradykinin): 24 mg/kg; dead [1]: 2/8
CC(CN1CCC(N2CCCCC2)CC1)c1cccc(C(=O)c2ccccc2)c1.Cl.Cl (stereo not drawn) [Example 3B, 1-[2-(3-Benzoylphenyl)propyl]-4-(1-piperidinyl)piperidine dihydrochloride] | 67 | – | 74 | – | 7.4 | ataxic ([1]; animals affected): 1/8; hypothermia ([1]; animals affected): 8/8; dead [1]: 1/8
CC(=O)NC1CCN(CC(C)c2ccc(C(=O)c3ccccc3)cc2)CC1.Cl.O (stereo not drawn) [Example 3C, 1-[2-(4-Benzoylphenyl)propyl]-4-acetylaminopiperidine hydrochloride monohydrate] | 41 | 19 | 53 | Inac. | 5.6 | ED50 (bradykinin): 46 mg/kg; pEC50 (human basophils): < 5.00; ED40 [6]: ~5 mg/kg
CC(CN1CCC(N2CCCCC2)CC1)c1ccc(C(=O)c2ccccc2)cc1 (stereo not drawn) [Example 3D, 1-[2-(4-Benzoylphenyl)propyl]-4-(1-piperdinyl)piperidine dihydrochloride] | 42 | 86 | 46 | Inac. | 29 | pEC50 (human basophils): 4.05; AED40 (Approximate Effective Dose resulting in 40% inhibition of bronchoconstriction) [6]: Inac.
CC(=O)N(C)C1CCN(CC(C)c2ccc(C(=O)c3ccccc3)cc2)CC1.Cl (stereo not drawn) [Example 3G, 1-[2-(4-Benzoylphenyl)propyl]-4-(N-acetyl-N-methylamino)piperidine hydrochloride] | – | – | – | – | – | Ba (active or inactive) [7]: Inact.; pEC50 [8]: 6.47
CC(c1cccc(C(=O)c2ccccc2)c1)N1CCC(CN2CCOCC2)CC1 (stereo not drawn) [Example 4A, 1-[1-(3-benzoylphenyl)ethyl]-4-(4-morpholinylmethyl)piperidine] | 0 | – | 38 | Actv. | – | ED40 [6]: > 30 mg/kg
CC(c1cccc(C(=O)c2ccccc2)c1)N1CCCCC1CN1CCOCC1.Cl.Cl (stereo not drawn) [Example 4B, 1-[1-(3-Benzoylphenyl)ethyl]-2-(4-morpholinylmethyl)piperidine dihydrochloride] | 16 | – | 48 | – | – | convulsions ([1]; animals affected at 15 min.): 2/8
CC(c1cccc(C(=O)c2ccccc2)c1)N1CCCC(CN2CCOCC2)C1 (stereo not drawn) [Example 4C, 1-[1-(3-Benzoylphenyl)ethyl]-3-(4-morpholinylmethyl)piperidine dihydrochloride monohydrate] | 0 | – | 55 | – | – | –
CC(c1cccc(C(=O)c2ccccc2)c1)N1CCCCC1CN1CCCCC1 (stereo not drawn) [Example 4D, 1-[1-(3-Benzoylphenyl)ethyl]-2-(1-piperidinylmethyl)piperidine dihydrochloride monohydrate] | 27 | – | 59 | – | – | inhibition in vivo at 324 µmol/kg [3]: 56%
CC(CN1CCC(N)CC1)c1ccc(C(=O)c2ccccc2)cc1.Cl.Cl (stereo not drawn) [Example 5A, 1-[2-(4-benzoylphenyl)propyl]-4-aminopiperidine-dihydrochloride] | – | – | – | – | 42 | AED40 (Approximate Effective Dose resulting in 40% inhibition of bronchoconstriction) [6]: Inac.
CC(CN1CCC(NC(=O)C2CC2)CC1)c1ccc(C(=O)c2ccccc2)cc1 (stereo not drawn) [Example 6A, 1-[2-(4-benzoylphenyl)propyl]-4-cyclopropanecarbonylaminopiperidine] | 72 | – | 77 | Weak | 16 | AEC50 (Approximate Effective Concentration resulting in 50% inhibition of allergic release of histamine) (human basophils): Inac.; ED40 [6]: 7.3 mg/kg
CCCC(=O)NC1CCN(CC(C)c2ccc(C(=O)c3ccccc3)cc2)CC1 (stereo not drawn) [Example 6B, 1-[2-(4-Benzoylphenyl)propyl]-4-butyrylaminopiperidine] | 54 | – | 63 | Inac. | 16 | inhibition in vivo at 40 µmol/kg [3]: 38%; pEC50 (human basophils): < 4.00; ED40 [6]: 2 mg/kg
CC(CN1CCC(NC(=O)c2ccccc2)CC1)c1ccc(C(=O)c2ccccc2)cc1 (stereo not drawn) [Example 6C, 1-[2-(4-Benzoylphenyl)propyl]-4-benzoylaminopiperidine] | 50 | 51 | 57 | – | 23 | –
CCC(=O)NC1CCN(CC(C)c2ccc(C(=O)c3ccccc3)cc2)CC1 (stereo not drawn) [Example 6E, 1-[2-(4-Benzoylphenyl)propyl]-4-propionylaminopiperidine] | – | – | – | – | – | ED40 [6]: 30 mg/kg
CC(CN1CCC(NC(=O)C2CCCCC2)CC1)c1ccc(C(=O)c2ccccc2)cc1 (stereo not drawn) [Example 6I, 1-[2-(4-Benzoylphenyl)propyl]-4-cyclohexanecarbonylaminopiperidine] | – | – | – | – | – | Ba (active or inactive) [7]: Active; pEC50 [8]: 5.59
CC(=O)NC1CCN(CC(C)c2ccc(C(O)c3ccccc3)cc2)CC1 (stereo not drawn) [Example 7, 1-[2-(α-hydroxy-4-benzylphenyl)propyl]-4-acetylaminopiperidine] | – | – | – | – | – | Ba (active or inactive) [7]: Slightly Active; pEC50 [8]: 5.54
